Tests used:
Test in all cases: KAM-matrix competition in K562 lysate;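 as to 0.001 uM KAM: median log10 fold change of treatment over DMSO control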;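 as to 0.01 uM KAM: median log10 fold change of treatment over DMSO control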;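 as to 0.1 uM KAM: median log10 fold change of treatment over DMSO control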;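 as to 1 uM KAM: median log10 fold change of treatment over DMSO control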;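 as to 10 uM KAM: median log10 fold change of treatment over DMSO control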
Assay type in all cases: binding
CSNK1A1 = biological target: T1, CSNK1A1 (Homo sapiens, UniProt P48729);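 as to 0.001 uM KAM: median log10 fold change of treatment over DMSO control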;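 as to 0.01 uM KAM: median log10 fold change of treatment over DMSO control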;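 as to 0.1 uM KAM: median log10 fold change of treatment over DMSO control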;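 as to 1 uM KAM: median log10 fold change of treatment over DMSO control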;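 as to 10 uM KAM: median log10 fold change of treatment over DMSO control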
T1 construct: endogenous in cells; host or cells: K562
T1 sequence (P48729 whole entry): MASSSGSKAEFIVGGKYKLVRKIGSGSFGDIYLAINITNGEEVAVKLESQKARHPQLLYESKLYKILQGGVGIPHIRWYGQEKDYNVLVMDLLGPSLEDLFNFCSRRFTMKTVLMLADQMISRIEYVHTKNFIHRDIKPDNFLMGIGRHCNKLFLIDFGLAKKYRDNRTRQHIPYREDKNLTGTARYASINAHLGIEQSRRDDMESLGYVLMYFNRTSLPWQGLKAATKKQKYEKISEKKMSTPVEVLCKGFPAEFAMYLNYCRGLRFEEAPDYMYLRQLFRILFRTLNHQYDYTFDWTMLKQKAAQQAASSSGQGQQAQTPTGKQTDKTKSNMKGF
Protocol: (§1) Supplement 12953_2017_125_MOESM1_ESM.zip/MS_Supp Info.xlsx, sheet "KAM" | column: 10 uM KAM; 1 uM KAM; 0.1 uM KAM; 0.01 uM KAM; 0.001 uM KAM; RB50

SRC = biological target: T2, SRC (Homo sapiens, UniProt P12931)
T2 construct: endogenous in cells; host or cells: K562
T2 sequence (P12931 whole entry): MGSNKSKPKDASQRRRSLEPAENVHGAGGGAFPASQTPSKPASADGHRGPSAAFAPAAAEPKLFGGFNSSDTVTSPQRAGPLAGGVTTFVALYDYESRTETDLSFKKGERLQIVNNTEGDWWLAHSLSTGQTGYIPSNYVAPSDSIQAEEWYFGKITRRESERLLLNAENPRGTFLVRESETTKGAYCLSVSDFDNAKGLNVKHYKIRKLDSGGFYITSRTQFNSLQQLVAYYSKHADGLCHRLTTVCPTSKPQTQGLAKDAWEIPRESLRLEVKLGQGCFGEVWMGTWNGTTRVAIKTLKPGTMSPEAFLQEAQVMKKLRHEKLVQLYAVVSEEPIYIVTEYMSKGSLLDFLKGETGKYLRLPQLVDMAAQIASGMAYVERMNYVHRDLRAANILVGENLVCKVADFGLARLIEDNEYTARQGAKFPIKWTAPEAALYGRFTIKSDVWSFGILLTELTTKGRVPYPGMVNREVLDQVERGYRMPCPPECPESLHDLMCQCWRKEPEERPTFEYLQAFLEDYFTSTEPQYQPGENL
Protocol: as §1

MAP4K5 = biological target: T3, MAP4K5 (Homo sapiens, UniProt Q9Y4K4)
T3 construct: endogenous in cells; host or cells: K562
T3 sequence (Q9Y4K4 whole entry): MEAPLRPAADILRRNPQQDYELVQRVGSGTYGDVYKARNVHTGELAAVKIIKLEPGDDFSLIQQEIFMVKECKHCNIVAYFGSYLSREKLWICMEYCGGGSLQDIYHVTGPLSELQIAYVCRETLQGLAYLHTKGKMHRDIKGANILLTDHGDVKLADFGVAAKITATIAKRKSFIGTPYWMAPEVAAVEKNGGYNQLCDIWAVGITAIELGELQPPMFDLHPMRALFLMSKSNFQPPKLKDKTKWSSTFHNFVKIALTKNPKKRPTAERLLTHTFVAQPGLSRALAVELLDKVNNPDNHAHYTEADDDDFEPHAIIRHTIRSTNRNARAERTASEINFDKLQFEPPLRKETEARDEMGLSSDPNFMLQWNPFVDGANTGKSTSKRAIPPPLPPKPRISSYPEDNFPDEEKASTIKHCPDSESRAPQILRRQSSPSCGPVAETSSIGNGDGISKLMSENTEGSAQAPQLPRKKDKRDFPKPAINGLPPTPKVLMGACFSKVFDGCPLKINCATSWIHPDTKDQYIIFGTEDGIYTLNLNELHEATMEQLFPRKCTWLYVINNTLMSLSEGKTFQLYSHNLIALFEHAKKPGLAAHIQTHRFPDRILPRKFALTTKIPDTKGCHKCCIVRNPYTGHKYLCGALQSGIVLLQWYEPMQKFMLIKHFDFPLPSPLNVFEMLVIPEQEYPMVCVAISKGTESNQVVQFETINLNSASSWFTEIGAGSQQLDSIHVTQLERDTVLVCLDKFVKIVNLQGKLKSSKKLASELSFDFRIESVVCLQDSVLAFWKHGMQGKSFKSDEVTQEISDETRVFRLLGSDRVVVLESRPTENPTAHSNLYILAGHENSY
Protocol: as §1

RIOK1 = biological target: T4, RIOK1 (Homo sapiens, UniProt Q9BRS2);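 as to 0.001 uM KAM: median log10 fold change of treatment over DMSO control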;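 as to 0.01 uM KAM: median log10 fold change of treatment over DMSO control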;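 as to 0.1 uM KAM: median log10 fold change of treatment over DMSO control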;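 as to 1 uM KAM: median log10 fold change of treatment over DMSO control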;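 as to 10 uM KAM: median log10 fold change of treatment over DMSO control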
T4 construct: endogenous in cells; host or cells: K562
T4 sequence (Q9BRS2 1-568): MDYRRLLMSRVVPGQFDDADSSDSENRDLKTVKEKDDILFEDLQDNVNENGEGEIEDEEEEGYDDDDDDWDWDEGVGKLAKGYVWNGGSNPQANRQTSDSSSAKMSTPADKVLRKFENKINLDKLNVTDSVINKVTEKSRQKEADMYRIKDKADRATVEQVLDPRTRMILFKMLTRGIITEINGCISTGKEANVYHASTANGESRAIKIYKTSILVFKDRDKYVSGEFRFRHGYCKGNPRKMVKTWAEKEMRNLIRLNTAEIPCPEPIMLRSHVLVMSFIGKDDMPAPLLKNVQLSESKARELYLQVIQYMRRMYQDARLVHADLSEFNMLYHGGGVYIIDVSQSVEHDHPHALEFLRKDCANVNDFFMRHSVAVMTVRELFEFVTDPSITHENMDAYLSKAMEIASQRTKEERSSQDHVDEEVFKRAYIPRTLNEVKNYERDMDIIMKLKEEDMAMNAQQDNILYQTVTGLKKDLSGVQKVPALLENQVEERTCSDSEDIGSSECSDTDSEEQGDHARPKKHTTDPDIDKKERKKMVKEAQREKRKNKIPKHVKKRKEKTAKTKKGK
Protocol: as §1

TLK2 = biological target: T5, TLK2 (Homo sapiens, UniProt Q86UE8);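 as to 0.001 uM KAM: median log10 fold change of treatment over DMSO control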;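 as to 0.01 uM KAM: median log10 fold change of treatment over DMSO control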;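 as to 0.1 uM KAM: median log10 fold change of treatment over DMSO control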;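 as to 1 uM KAM: median log10 fold change of treatment over DMSO control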;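 as to 10 uM KAM: median log10 fold change of treatment over DMSO control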
T5 construct: endogenous in cells; host or cells: K562
T5 sequence (Q86UE8 whole entry): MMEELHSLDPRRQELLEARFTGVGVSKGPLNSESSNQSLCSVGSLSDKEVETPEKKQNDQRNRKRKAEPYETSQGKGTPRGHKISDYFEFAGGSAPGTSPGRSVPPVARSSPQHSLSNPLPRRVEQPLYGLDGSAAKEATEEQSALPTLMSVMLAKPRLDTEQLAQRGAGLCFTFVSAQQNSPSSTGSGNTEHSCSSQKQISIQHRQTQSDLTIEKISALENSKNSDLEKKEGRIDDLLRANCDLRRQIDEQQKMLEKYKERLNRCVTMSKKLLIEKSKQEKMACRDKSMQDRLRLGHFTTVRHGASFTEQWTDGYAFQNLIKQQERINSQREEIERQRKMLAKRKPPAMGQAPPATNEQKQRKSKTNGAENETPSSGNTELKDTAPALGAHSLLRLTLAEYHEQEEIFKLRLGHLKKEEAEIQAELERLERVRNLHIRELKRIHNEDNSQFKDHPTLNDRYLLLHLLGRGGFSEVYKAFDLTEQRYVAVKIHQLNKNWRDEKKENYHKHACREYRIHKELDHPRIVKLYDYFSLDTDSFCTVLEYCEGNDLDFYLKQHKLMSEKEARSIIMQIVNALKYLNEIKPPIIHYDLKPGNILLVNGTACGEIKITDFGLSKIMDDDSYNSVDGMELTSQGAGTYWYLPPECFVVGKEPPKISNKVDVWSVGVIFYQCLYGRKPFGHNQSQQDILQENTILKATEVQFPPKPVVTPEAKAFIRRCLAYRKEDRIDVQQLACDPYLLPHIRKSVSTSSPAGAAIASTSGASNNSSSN
Protocol: as §1

OBSCN = biological target: T6, OBSCN (Homo sapiens, UniProt Q5VST9);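 as to 0.001 uM KAM: median log10 fold change of treatment over DMSO control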;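 as to 0.01 uM KAM: median log10 fold change of treatment over DMSO control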;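 as to 0.1 uM KAM: median log10 fold change of treatment over DMSO control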;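 as to 1 uM KAM: median log10 fold change of treatment over DMSO control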;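 as to 10 uM KAM: median log10 fold change of treatment over DMSO control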
T6 construct: endogenous in cells; host or cells: K562
Protocol: as §1

MAP3K3 = biological target: T7, MAP3K3 (Homo sapiens, UniProt Q99759)
T7 construct: endogenous in cells; host or cells: K562 cell lysate
T7 sequence (Q99759 1-626): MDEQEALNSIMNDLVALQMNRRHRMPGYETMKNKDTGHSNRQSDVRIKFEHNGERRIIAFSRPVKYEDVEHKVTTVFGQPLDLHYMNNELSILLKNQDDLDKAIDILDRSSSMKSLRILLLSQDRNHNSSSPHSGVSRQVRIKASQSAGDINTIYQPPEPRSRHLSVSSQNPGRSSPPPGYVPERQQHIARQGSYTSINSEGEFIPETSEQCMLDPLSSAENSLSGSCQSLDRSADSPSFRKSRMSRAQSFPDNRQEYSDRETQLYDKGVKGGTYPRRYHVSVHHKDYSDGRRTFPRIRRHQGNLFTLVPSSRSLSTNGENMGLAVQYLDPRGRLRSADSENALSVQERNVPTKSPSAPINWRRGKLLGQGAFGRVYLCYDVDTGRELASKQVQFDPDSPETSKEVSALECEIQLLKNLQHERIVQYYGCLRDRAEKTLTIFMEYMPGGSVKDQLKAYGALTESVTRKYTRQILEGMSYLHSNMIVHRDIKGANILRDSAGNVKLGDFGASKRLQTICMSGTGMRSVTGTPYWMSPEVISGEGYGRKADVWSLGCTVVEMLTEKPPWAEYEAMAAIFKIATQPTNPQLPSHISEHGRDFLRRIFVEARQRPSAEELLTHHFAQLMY
Protocol: as §1

STK17A = biological target: T8, STK17A (Homo sapiens, UniProt Q9UEE5)
T8 construct: endogenous in cells; host or cells: K562 cell lysate
T8 sequence (Q9UEE5 1-414): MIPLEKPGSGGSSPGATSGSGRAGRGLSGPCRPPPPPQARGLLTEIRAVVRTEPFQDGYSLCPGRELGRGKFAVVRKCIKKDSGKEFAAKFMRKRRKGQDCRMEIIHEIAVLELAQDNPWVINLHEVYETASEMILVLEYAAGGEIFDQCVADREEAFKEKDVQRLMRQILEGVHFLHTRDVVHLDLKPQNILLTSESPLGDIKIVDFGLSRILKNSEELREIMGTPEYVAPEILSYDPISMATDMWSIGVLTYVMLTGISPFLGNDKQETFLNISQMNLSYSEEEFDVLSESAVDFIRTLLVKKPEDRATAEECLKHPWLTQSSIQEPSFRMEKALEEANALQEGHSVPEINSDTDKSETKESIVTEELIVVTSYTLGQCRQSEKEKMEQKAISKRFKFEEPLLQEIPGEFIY
Protocol: as §1

BRD2 = biological target: T9, BRD2 (Homo sapiens, UniProt P25440)
T9 construct: endogenous in cells; host or cells: K562
T9 sequence (P25440 whole entry): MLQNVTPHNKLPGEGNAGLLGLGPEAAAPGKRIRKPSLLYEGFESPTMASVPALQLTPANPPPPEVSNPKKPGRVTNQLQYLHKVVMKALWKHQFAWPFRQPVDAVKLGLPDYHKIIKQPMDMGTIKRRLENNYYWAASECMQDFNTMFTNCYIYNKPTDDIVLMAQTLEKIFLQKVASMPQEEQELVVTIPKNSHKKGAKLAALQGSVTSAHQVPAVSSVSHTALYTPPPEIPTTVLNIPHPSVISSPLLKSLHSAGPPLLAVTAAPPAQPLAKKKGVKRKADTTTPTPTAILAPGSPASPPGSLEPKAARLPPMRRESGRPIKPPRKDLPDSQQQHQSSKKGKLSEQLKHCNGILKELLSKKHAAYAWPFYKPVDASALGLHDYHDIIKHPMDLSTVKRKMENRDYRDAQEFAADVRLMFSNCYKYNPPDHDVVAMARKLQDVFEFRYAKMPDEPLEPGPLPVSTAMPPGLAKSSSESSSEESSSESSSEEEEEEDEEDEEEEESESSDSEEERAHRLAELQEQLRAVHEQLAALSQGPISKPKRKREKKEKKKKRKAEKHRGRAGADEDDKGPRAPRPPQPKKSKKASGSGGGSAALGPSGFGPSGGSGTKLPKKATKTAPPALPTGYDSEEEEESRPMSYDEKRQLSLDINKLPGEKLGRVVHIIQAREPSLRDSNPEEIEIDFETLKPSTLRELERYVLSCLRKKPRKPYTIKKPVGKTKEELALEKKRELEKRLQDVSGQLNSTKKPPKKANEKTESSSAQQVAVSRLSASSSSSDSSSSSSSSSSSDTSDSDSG
Protocol: as §1

[1] = KAM 0.001-10 uM, read-out: RB50 (the source's name)
[2] = read-out: RB50 (the source's name)

With N#CCc1ccc(Nc2nc(NCCCN)cc(Nc3cc(C4CC4)[nH]n3)n2)cc1 [KAM] the IC50 (CSNK1A1; [1]) was greater than 10 µM, the “0.001 uM KAM” value (CSNK1A1; relative to 0 uM KAM = 0) was 0.05671 and the “0.01 uM KAM” value (CSNK1A1; relative to 0 uM KAM = 0) was -0.02341. The “0.1 uM KAM” value (CSNK1A1; relative to 0 uM KAM = 0) was 0.02518, the “1 uM KAM” value (CSNK1A1; relative to 0 uM KAM = 0) was 0.03521 and the “10 uM KAM” value (CSNK1A1; relative to 0 uM KAM = 0) was -0.008144. The “median Log10 fold change” value (SRC; 0.001 uM KAM) was -0.003111, the “median Log10 fold change” value (SRC; 0.01 uM KAM) was -0.02243 and the “median Log10 fold change” value (SRC; 0.1 uM KAM) was -0.1125. The “median Log10 fold change” value (SRC; 1 uM KAM) was -0.3083, the “median Log10 fold change” value (SRC; 10 uM KAM) was -0.5006 and the IC50 (SRC; [2]) was 1100 nM. The “median Log10 fold change” value (MAP4K5; 0.001 uM KAM) was 0.009454, the “median Log10 fold change” value (MAP4K5; 0.01 uM KAM) was -0.01011 and the “median Log10 fold change” value (MAP4K5; 0.1 uM KAM) was -0.2304. For the same compound, the “median Log10 fold change” value (MAP4K5; 1 uM KAM) was -0.4191, the “median Log10 fold change” value (MAP4K5; 10 uM KAM) was -0.5735 and the IC50 (MAP4K5; [2]) was 332 nM. For the same compound, the IC50 (RIOK1; [1]) was greater than 10 µM, the “0.001 uM KAM” value (RIOK1; relative to 0 uM KAM = 0) was -0.005877 and the “0.01 uM KAM” value (RIOK1; relative to 0 uM KAM = 0) was -0.06085. For the same compound, the “0.1 uM KAM” value (RIOK1; relative to 0 uM KAM = 0) was -0.03934, the “1 uM KAM” value (RIOK1; relative to 0 uM KAM = 0) was 0.04921 and the “10 uM KAM” value (RIOK1; relative to 0 uM KAM = 0) was -0.001737. The IC50 (TLK2; [1]) was greater than 10 µM, the “0.001 uM KAM” value (TLK2; relative to 0 uM KAM = 0) was -0.002954 and the “0.01 uM KAM” value (TLK2; relative to 0 uM KAM = 0) was -0.03195. For the same compound, the “0.1 uM KAM” value (TLK2; relative to 0 uM KAM = 0) was -0.07515, the “1 uM KAM” value (TLK2; relative to 0 uM KAM = 0) was 0.001633 and the “10 uM KAM” value (TLK2; relative to 0 uM KAM = 0) was -0.09222. The IC50 (OBSCN; [1]) was greater than 10 µM, the “0.001 uM KAM” value (OBSCN; relative to 0 uM KAM = 0) was -0.03363 and the “0.01 uM KAM” value (OBSCN; relative to 0 uM KAM = 0) was 0.02355. The “0.1 uM KAM” value (OBSCN; relative to 0 uM KAM = 0) was -0.066, the “1 uM KAM” value (OBSCN; relative to 0 uM KAM = 0) was -0.08935 and the “10 uM KAM” value (OBSCN; relative to 0 uM KAM = 0) was -0.04979. For the same compound, the “median Log10 fold change” value (MAP3K3; 0.001 uM KAM) was -0.04647, the “median Log10 fold change” value (MAP3K3; 0.01 uM KAM) was 0.002946 and the “median Log10 fold change” value (MAP3K3; 0.1 uM KAM) was -0.1524. The “median Log10 fold change” value (MAP3K3; 1 uM KAM) was -0.3206, the “median Log10 fold change” value (MAP3K3; 10 uM KAM) was -0.4381 and the IC50 (MAP3K3; [2]) was 1000 nM. The “median Log10 fold change” value (STK17A; 0.001 uM KAM) was -0.02395, the “median Log10 fold change” value (STK17A; 0.01 uM KAM) was -0.004192 and the “median Log10 fold change” value (STK17A; 0.1 uM KAM) was -0.2117. The “median Log10 fold change” value (STK17A; 1 uM KAM) was -0.3947, the “median Log10 fold change” value (STK17A; 10 uM KAM) was -0.5099 and the IC50 (STK17A; [2]) was 457 nM. The “median Log10 fold change” value (BRD2; 0.001 uM KAM) was -0.02696, the “median Log10 fold change” value (BRD2; 0.01 uM KAM) was -0.0008346 and the “median Log10 fold change” value (BRD2; 0.1 uM KAM) was -0.172. For the same compound, the “median Log10 fold change” value (BRD2; 1 uM KAM) was -0.286, the “median Log10 fold change” value (BRD2; 10 uM KAM) was -0.3099 and the IC50 (BRD2; [2]) was 1890 nM.

Source: publication PMC5513037, “Examining the influence of specificity ligands and ATP-competitive ligands on the overall effectiveness of bivalent kinase inhibitors” (Proteome Science, 2017)
